Laboratory results from US10059695B2, “Cot modulators and methods of use thereof” (Gilead Sciences, Inc., priority 2016, dated 2018).

Assays:
Human Cot = Human Cot (Homo sapiens (Human), UniProt P41279); test: High Throughput Cot Biochemical Assay (KinEASE TR-FRET); settings: recombinant human Cot catalytic domain, 400 μM ATP
Procedure: Example 24: High Throughput Cot Biochemical Assay
Human Cot enzyme activity was measured using KinEASE (Cisbio), a time-resolved fluorescence resonance energy transfer (TR-FRET) immunoassay. In this assay, Cot-catalyzes the phosporylation of a XL665-labeled peptide substrate. Europium conjugated […] specific antibody binds the resulting phosphorylated peptide. Formation of phosphorylated peptide is quantified by TR-FRET with Europium as the donor and XL665 the acceptor in a 2-step endpoint assay. Purified recombinant human Cot catalytic domain (30-397 amino acids) was purchased from Carna Biosciences. In brief, test compounds serially diluted in DMSO were delivered into Proxy white, low volume, 384 well plates using the Echo 550 acoustic liquid dispenser (Labcyte®). Cot enzyme and substrates were dispensed into assay plates using a Multi-Flo (Bio-Tek Instruments). The standard 5 μL reaction mixture contained 400 μM ATP, 1 μM STK3 peptide, 5 nM of Cot in reaction buffer (10 mM MOPS, pH 7.0, 0.02% NaN3, 0.5 mg/mL BSA, 10 mM MgOAc, 1 mM DTT, 0.025% NP-40, 1.5% glycerol) and 0.1% DMSO. After 2.5 hrs of incubation at room temperature, 5 μL of Stop and Detect Solution (1:200 Europium Cryptate labeled anti-phosphorylated peptide antibody solution and 125 nM strepavidin-XL665 Tracer in a 50 mM Hepes pH 7.0 detection buffer containing sufficient EDTA) was added. The plate was then further incubated for 120 minutes at room temperature and read using an Envision 2103 Multilabeled reader (PerkinElmer) with excitation/emission/FRET emission at 340 nm/615 nm/665 nm, respectively. Fluorescence intensities at 615 nm and 665 nm emission wavelengths were expressed as a ratio (665 nm/615 nm).

TNFα = test: Cot Monocyte TNFα Cell Based Assay; settings: LPS-stimulated cryopreserved human monocytes, TNFα by TR-FRET
Procedure: Example 23: Cot Monocyte TNFα Cell Based Assay
Cryopreserved human monocytes (Stem Cell Technologies) were thawed, diluted in RPMI with Glutamax (10 mM HEPES, 1× Pen-Strep, 55 μM β-mercaptoethanol, 1 mM Sodium pyruvate) media containing 10% FBS to 0.125×10^6 cells/ml and recovered at 37° C. for 2 hours. The cell suspension was then plated at a density of 5,000 cells/well onto black 384 well Greiner clear bottom plates. Plates were pre-spotted with test compounds and serially diluted in DMSO where 200 nL/well were delivered using the Echo 550 acoustic liquid dispenser (Labcyte®) for a final DMSO concentration of 0.5%. Plated cells were treated with compound for 1 hour at 37° C. Cells were then stimulated with 50 μg/ml of LPS (Sigma) excluding outside columns of plate used for unstimulated cell control wells. Cells were incubated for an additional 4 hours at 37° C. Cells were then spun out of the media and 5 μl of sample were taken and analyzed for total TNFα content using the TR-FRET Human TNFα detection system (CisBio). This system utilizes two labeled antibodies (cryptate and XL665) that bind to two different epitopes of the TNFα molecule and produce FRET signal proportional to the concentration of TNFα in the sample. Detection antibodies are mixed 50:50 and 5 μL were dispensed into each well. Plates were covered with clear seals and incubated at room temp overnight. The following morning plates were read using an Envision 2103 Multilabeled reader (PerkinElmer) with excitation/emission/FRET emission at 340 nm/615 nm/665 nm, respectively. Fluorescence intensities at 615 nm and 665 nm emission wavelengths were expressed as a ratio (665 nm/615 nm). Percent of control was calculated as follows: % Control=100×(RatioSample−Ratio0% stimulation)/(Ratio100% Stimulation−Ratio0% Stimulation) where unstimulated cells (0% stimulation) were the negative control and stimulated cells (100% stimulation) were used as the positive control.

Human Cot, sequence (P41279 30-397): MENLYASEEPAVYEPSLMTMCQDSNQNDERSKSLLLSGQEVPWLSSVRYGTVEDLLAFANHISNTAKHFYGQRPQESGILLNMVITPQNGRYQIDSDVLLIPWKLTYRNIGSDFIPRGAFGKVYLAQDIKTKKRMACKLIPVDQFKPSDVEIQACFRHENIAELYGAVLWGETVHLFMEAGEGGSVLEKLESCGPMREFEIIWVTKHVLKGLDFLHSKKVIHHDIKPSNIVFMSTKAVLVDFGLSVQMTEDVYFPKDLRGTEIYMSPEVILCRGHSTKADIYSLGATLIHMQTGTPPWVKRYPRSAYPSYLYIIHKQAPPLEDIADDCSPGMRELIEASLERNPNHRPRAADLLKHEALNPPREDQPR

| SMILES | IC50 (Human Cot) [µM] | EC50 (TNFα) [µM] |
| --- | --- | --- |
| [2H][C@](Nc1ccc2ncnc(Nc3cnc(F)c(F)c3)c2c1)(c1ccc(F)cc1)c1cn(C2CC2)nn1 [II-11, (S)-N^6-((1-cyclopropyl-1H-1,2,3-triazol-4-yl)(4-fluorophenyl)methyl-d)-N^4-(5,6-difluoropyridin-3-yl)quinazoline-4,6-diamine] | 0.074 | 0.645 |
| [2H][C@](Nc1cc(Cl)c2ncnc(N[C@H](CCC#N)c3ccccc3)c2c1)(c1ccc(F)cc1)c1cn(C2(C(F)(F)F)CC2)nn1 [I-12, (R)-4-((8-chloro-6-(((S)-(4-fluorophenyl)(1-(1-(trifluoromethyl)cyclopropyl)-1H-1,2,3-triazol-4-yl)methyl-d)amino)quinazolin-4-yl)amino)-4-phenylbutanenitrile] | 0.137 | > 1 |
| CCN1CCC(n2cc([C@@H](Nc3cc(Cl)c4ncnc(Nc5ccc(F)c(Cl)c5)c4c3)c3ccccc3)nn2)CC1 [II-4, (S)-8-chloro-N^4-(3-chloro-4-fluorophenyl)-N^6-((1-(1-ethylpiperidin-4-yl)-1H-1,2,3-triazol-4-yl)(phenyl)methyl) quinazoline-4,6-diamine] | 0.0059 | 0.254 |
| [2H][C@@](Nc1cc(Cl)c2ncnc(NCC(C)(C)C)c2c1)(c1cn(CC(=O)O)nn1)c1ccccc1Cl [I-10, (S)-2-(4-(((8-chloro-4-(neopentylamino)quinazolin-6-yl)amino)(2-chlorophenyl)methyl-d)-1H-1,2,3-triazol-1-yl)acetic acid] | 0.013 | > 1 |
| Cn1ccc2c([C@H](Nc3cc(Cl)c4ncnc(NCC(C)(C)C)c4c3)c3cn(C45CC(C4)C5)nn3)cccc2c1=O [I-27, (S)-5-((1-(bicyclo[1.1.1]pentan-1-yl)-1H-1,2,3-triazol-4-yl)((8-chloro-4-(neopentylamino)quinazolin-6-yl)amino)methyl)-2-methylisoquinolin-1(2H)-one] | 0.0017 | 0.0121 |
| [2H][C@](Nc1cc(Cl)c2ncnc(N[C@H](CCC#N)c3ccccc3)c2c1)(c1ccc(F)cc1)c1cn(C2CC2)nn1 [I-11, (R)-4-((8-chloro-6-(((S)-(1-cyclopropyl-1H-1,2,3-triazol-4-yl)(4-fluorophenyl)methyl-d)amino)quinazolin-4-yl)amino)-4-phenylbutanenitrile] | 0.046 | 0.671 |
| Cc1nc(F)ccc1[C@H](Nc1cc(C#N)c2ncnc(NCC(C)(C)C)c2c1)c1cn(C2(C(F)F)CC2)nn1 [I-22, (S)-6-(((1-(1-(difluoromethyl)cyclopropyl)-1H-1,2,3-triazol-4-yl)(6-fluoro-2-methylpyridin-3-yl)methyl)amino)-4-(neopentylamino) quinazoline-8-carbonitrile] | 0.0017 | 0.036 |
| [2H][C@](Nc1ccc2ncnc(NCC(C)(C)C)c2c1)(c1ccc(F)cc1)c1cn(C2CC2)nn1 [I-1, (S)-N^6-((1-cyclopropyl-1H-1,2,3-triazol-4-yl)(4-fluorophenyl)methyl-d)-N^4-neopentylquinazoline-4,6-diamine] | 0.005 | 0.101 |
| CC(C)(C)CNc1ncnc2ccc(N[C@@H](c3ccc(F)cc3)c3cn(C4CC4)nn3)cc12 [I-2, (S)-N^6-((1-cyclopropyl-1H-1,2,3-triazol-4-yl)(4-fluorophenyl)methyl)-N^4-neopentylquinazoline-4,6-diamine] | 0.0077 | 0.085 |
| Fc1ccc(Nc2ncnc3c(Cl)cc(N[C@@H](c4ccccc4)c4cn(C5CCNCC5)nn4)cc23)cc1Cl [II-9, (S)-8-chloro-N4-(3-chloro-4-fluorophenyl)-N6-(phenyl(1-(piperidin-4-yl)-1H-1,2,3-triazol-4-yl)methyl) quinazoline-4,6-diamine] | 0.0083 | 0.337 |
| Cc1nc(F)ccc1[C@H](Nc1cc(Cl)c2ncnc(NCC(C)(C)C)c2c1)c1cn(C2(C(F)F)CC2)nn1 [I-21, (S)-8-chloro-N^6-((1-(1-(difluoromethyl)cyclopropyl)-1H-1,2,3-triazol-4-yl)(6-fluoro-2-melhylpyridin-3-yl)methyl)-N^4-neopentylquinazoline-4,6-diamine] | 0.0019 | 0.028 |
| CC(C)(C)CNc1ncnc2ccc(N[C@H](c3cn(C4CC4)nn3)c3ccccc3Cl)cc12 [I-8, (S)-N^6-((2-chlorophenyl)(1-cyclopropyl-1H-1,2,3-triazol-4-yl)methyl)-N^4-neopentylquinazoline-4,6-diamine] | 0.013 | 0.169 |
| [2H][C@@](Nc1cc(Cl)c2ncnc(NCC(C)(C)C)c2c1)(c1cn(C2CC2)nn1)c1ccccc1Cl [I-9, (S)-8-chloro-N6-((2-chlorophenyl)(1-cyclopropyl-1H-1,2,3-triazol-4-yl)methyl-d)-N4-neopentylquinazoline-4,6-diamine] | 0.0048 | 0.086 |
| CC(C)(C)CNc1ncnc2c(Br)cc(N[C@H](c3cn(C4(C(F)(F)F)CC4)nn3)c3cccc4ncsc34)cc12 [I-18, (S)-N^6-(benzo[d]thiazol-7-yl(1-(1-(trifluoromethyl)cyclopropyl)-1H-1,2,3-triazol-4-yl)methyl)-8-bromo-N^4-neopentylquinazoline-4,6-diamine] | 0.008 | 0.195 |

Further compounds by falling IC50 (Human Cot), results first:

| IC50 (Human Cot) [µM] | EC50 (TNFα) [µM] | SMILES |
| --- | --- | --- |
| 0.053 | 2.5 | [2H]C(Nc1ccc2ncnc(NC(CC#N)c3ccccc3)c2c1)(c1ccc(F)cc1)c1cn(C2CC2)nn1 [I-5, 3-((6-(((S)-(1-cyclopropyl-1H-1,2,3-triazol-4-yl)(4-fluorophenyl)methyl-d)amino)quinazolin-4-yl)amino)-3-phenylpropanenitrile] |
| 0.043 | 0.796 | [2H][C@](Nc1ccc2ncnc(N[C@H](CC)c3ccccc3)c2c1)(c1ccc(F)cc1)c1cn(C2CC2)nn1 [I-4, N^6-((S)-(1-cyclopropyl-1H-1,2,3-triazol-4-yl)(4-fluorophenyl)methyl-d)-N^4-((R)-1-phenylpropyl) quinazoline-4,6-diamine] |
| 0.011 | 0.296 | [2H][C@](Nc1ccc2ncnc(NCC3(C)CCOCC3)c2c1)(c1ccc(F)cc1)c1cn(C2CC2)nn1 [I-3, (S)-N^6-((1-cyclopropyl-1H-1,2,3-triazol-4-yl)(4-fluorophenyl)methyl-d)-N^4-((4-methyltetrahydro-2H-pyran-4-yl)methyl)quinazoline-4,6-diamine] |
| 0.0033 | 0.059 | CC(C)(C)CNc1ncnc2c(C#N)cc(N[C@H](c3cn(C4(C(F)(F)F)CC4)nn3)c3cccc4ncsc34)cc12 [I-17, (S)-6-((benzo[d]thiazol-7-yl(1-(1-(trifluoromethyl)cyclopropyl)-1H-1,2,3-triazol-4-yl)methyl)amino)-4-(neopentylamino) quinazoline-8-carbonitrile] |
| 0.0031 | 0.046 | [2H][C@](Nc1cc(Cl)c2ncnc(NCC(C)(C)C)c2c1)(c1ccc(F)cc1)c1cn(C2(CF)CC2)nn1 [I-16, (S)-8-chloro-N^6-((1-(1-(fluoromethyl)cyclopropyl)-1H-1,2,3-triazol-4-yl)(4-fluorophenyl)methyl-d)-N^4-neopentylquinazoline-4,6-diamine] |
| 0.0026 | 0.102 | [2H][C@](Nc1ccc2ncnc(NCC(C)(C)C)c2c1)(c1cccc(C#N)c1)c1cn(C2CC2)nn1 [I-7, (S)-3-((1-cyclopropyl-1H-1,2,3-triazol-4-yl)((4-(neopentylamino)quinazolin-6-yl)amino)methyl-d)benzonitrile] |
| 0.0024 | 0.0255 | Cn1ccc2c([C@H](Nc3cc(Cl)c4ncnc(NCC(C)(C)C)c4c3)c3cn(C4(C(F)F)CC4)nn3)cccc2c1=O [I-25, (S)-5-(((8-chloro-4-(neopentylamino)quinazolin-6-yl)amino)(1-(1-(difluoromethyl)cyclopropyl)-1H-1,2,3-triazol-4-yl)methyl)-2-methylisoquinolin-1(2H)-one] |
